From US8258138B2, “Potassium channel blockers” (Xention Limited, priority 2008, dated 2012) come the findings set out here.

One assay has as its target T1, human Kv1.3 (Homo sapiens, UniProt P22001).
T1 construct: expressed in transfected cells; host or cells: stably transfected cells grown in medium for CHO cells
As to the kind of experiment: Kv1.3 Autopatch electrophysiology (whole cell patch-clamp, inhibition of charge movement). It is filed as cell-based. Particulars: compound at 1 μM; cells stably transfected with human Kv1.3; room temperature; total charge during step to +30 mV relative to control; read-out: hKv1.3 % inh. Put shortly:
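Whole-cell AutoPatch recordings were made at room temperature from cells held at −80 mV, with 500 ms steps to +30 mV every 15 s. The bath contained 10 mM KCl, pH 7.4, and the pipette K-gluconate/EGTA, pH 7.2.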

The target of a further assay is hKv1.5 (Homo sapiens, UniProt P22460). As to the kind of experiment: Kv1.5 Autopatch electrophysiology (whole cell patch-clamp). It is filed as cell-based. Conditions: compound at 1 μM; room temperature (22-24° C.); total charge during step to 0 mV; read-out: hKv1.5 % inh. As to the method:
Kv1.5 Autopatch Electrophysiology Method
The external bathing solution contained (in mM): 150 NaCl, 10 KCl, […], 3 MgCl2, 1 CaCl2, 10 HEPES, pH 7.4. Patch pipettes were filled with an electrode solution of composition (in mM): 160 KCl, 0.5 MgCl2, 10 HEPES, 1 EGTA, pH 7.4 with KOH.
Compounds were dissolved in DMSO (100%) and made up in the external bather at a concentration of 1 μM. All experiments were conducted at room temperature (22-24° C.).
A cell suspension (10 ml), with a density of 100,000 cells/ml, was aliquoted into a 15 ml centrifuge tube and transferred to an incubator (37° C., 5% CO2) for approximately one hour before use. Following 60 min incubation, a tube was taken and centrifuged at 1000 rpm for 4 mins at room temperature. 9.5 ml supernatant was thence discarded, leaving a cell pellet at the bottom of the tube. The pellet was then resuspended using 100 μl of cold (4° C.), filtered (0.22 μm), 0.2% BSA/bather solution (0.02 g BSA/10 ml bather). The bottom of the tube was manually agitated gently until the solution became cloudy with cells. The 100 μl cell resuspension solution was then stored on the bench at 4° C. (using a Peltier-based temperature control device) until used.
A length of capillary glass (1B150F-4, WPI) was dipped into the cell suspension solution, such that ˜3 cm column of fluid was taken up by capillary action. A Ag/AgCl wire was dropped into the non-dipped end of the capillary also. The outside of the solution-filled end of the capillary was then dried and the capillary was loaded into the AutoPatch™.
Borosilicate glass patch pipettes (from 1.5 mm OD, thin-walled filamented, GC150-TF capillary glass, Harvard) were pulled using a DMZ pipette puller (Zeitz Instruments), and were back-filled using the internal pipette solution, being careful that no bubbles remain at the tip or in the body of the pipette. Patch pipettes typically had resistances of 2.3-3.5 MΩ. Once filled, the pipette tip and a proportion of the shaft (˜15 mm) were dipped into Sigmacote (Sigma). The recording pipette was then loaded into the AutoPatch™ Automated patch-clamping was initiated by the operator, but thereafter AutoPatch.exe continued the experiment providing that pre-set conditions and criteria were satisfied.
Whole cell patch-clamp recordings were made using the AutoPatch™ rig, which incorporated an EPC9 amplifier (HEKA, Germany) under control of Pulse software (v8.54, HEKA, Germany), a motion controller with 2 translators (Newport, UK), valve controller (VF1) and a c-level suction device all at room temperature (22-24° C.). This equipment was completely under the control of AutoPatch.exe and operator intervention was only made when there was a requirement to refill the drug reservoirs or to prevent the loss of a cell due to a technical error. Cells with an Rseries greater than 18 MΩ were discounted from the experiment.
Qualification stages prior to perfusion and drug application ensured that the observed current met the criteria for the experiment. Only those cells with an IK>500 pA were used for experiments. Cells were continuously perfused with external solution at a flow rate of 1.8-2 ml/minute. […] Online analysis of the hKv1.5 current during the application of compounds was performed by the AutoPatch™ software. Voltage-step protocols and analysis of data was performed as described for conventional electrophysiology.
Electrophysiology voltage-step protocols and analysis of data was performed as follows. Data was sampled at 5 kHz, and filtered with a −3 dB bandwidth of 2.5 kHz. Cells were held at a voltage of −80 mV. Currents were evoked to a voltage step for 1000 ms in duration at 0 mV every 5 s. Currents were analysed using Pulsefit software (v8.54, HEKA, Germany), with the total charge measured during the whole of the voltage step. All other plots were produced using Igor Pro (WaveMetrics).
(The patch-clamp technique gives a direct electrical read-out from membranes.)

T1 sequence (P22001 whole entry): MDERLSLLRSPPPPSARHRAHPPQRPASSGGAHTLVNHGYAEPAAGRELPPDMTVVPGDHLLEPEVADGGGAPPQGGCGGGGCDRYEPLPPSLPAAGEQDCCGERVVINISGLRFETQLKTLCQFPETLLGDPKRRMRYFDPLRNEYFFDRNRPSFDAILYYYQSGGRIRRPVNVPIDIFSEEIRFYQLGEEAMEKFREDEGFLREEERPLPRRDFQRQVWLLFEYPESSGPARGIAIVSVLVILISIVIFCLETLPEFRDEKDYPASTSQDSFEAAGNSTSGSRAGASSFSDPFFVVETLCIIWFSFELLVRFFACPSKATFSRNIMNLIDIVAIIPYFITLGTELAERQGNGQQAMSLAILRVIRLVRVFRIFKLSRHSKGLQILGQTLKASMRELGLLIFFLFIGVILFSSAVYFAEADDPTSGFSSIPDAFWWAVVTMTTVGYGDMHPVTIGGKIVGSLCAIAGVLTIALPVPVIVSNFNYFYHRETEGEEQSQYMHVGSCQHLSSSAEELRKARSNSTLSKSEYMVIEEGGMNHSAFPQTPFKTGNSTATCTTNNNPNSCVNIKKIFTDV
hKv1.5, sequence (P22460 whole entry): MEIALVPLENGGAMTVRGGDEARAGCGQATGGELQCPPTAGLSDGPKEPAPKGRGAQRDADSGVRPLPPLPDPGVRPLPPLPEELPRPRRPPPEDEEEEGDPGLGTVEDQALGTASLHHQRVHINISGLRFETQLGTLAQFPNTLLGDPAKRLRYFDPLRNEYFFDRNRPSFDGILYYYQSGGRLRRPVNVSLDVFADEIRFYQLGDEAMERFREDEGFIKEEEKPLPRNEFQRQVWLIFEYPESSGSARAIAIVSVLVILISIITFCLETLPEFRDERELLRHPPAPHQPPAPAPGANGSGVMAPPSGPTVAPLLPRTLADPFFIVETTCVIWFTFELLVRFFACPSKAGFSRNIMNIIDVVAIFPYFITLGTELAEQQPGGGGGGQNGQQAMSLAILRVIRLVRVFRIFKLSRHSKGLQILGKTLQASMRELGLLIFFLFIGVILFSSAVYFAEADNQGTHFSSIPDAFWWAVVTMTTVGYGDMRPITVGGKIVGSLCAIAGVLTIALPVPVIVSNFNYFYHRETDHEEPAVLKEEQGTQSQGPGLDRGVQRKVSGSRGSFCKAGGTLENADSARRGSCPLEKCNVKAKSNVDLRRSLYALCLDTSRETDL

Regarding `N#Cc1ccccc1S(=O)(=O)N(Cc1ccccc1)c1ccc(C(=O)N2CCN(c3ccccc3)CC2)cc1` [Example 24, N-Benzyl-2-cyano-N-[4-(4-phenyl-piperazine-1-carbonyl)-phenyl]-benzenesulfonamide], the inhibition at 1 µM at human Kv1.3 was determined as 84%; on hKv1.5 it was 71.9%.
The matching figures for `Cn1cnc(S(=O)(=O)N(Cc2ccccc2)c2ccc(C(=O)N3CCN(c4ccccc4)CC3)cc2)c1` [Example 25, 1-Methyl-1H-imidazole-4-sulfonic acid benzyl-[4-(4-phenyl-piperazine-1-carbonyl)-phenyl]-amide]: 68% and 58.8%.
In the same order, the values of `Cc1ccccc1S(=O)(=O)N(Cc1ccccc1)c1ccc(C(=O)N2CCN(c3ccccc3)CC2)cc1` [Example 26, N-Benzyl-2-methyl-N-[4-(4-phenyl-piperazine-1-carbonyl)-phenyl]-benzenesulfonamide] are 82% and 85.5%.
With `COc1cccc(S(=O)(=O)N(Cc2ccccc2)c2ccc(C(=O)N3CCN(c4ccccc4)CC3)cc2)c1` [Example 28, N-Benzyl-3-methoxy-N-[4-(4-phenyl-piperazine-1-carbonyl)-phenyl]-benzenesulfonamide], the inhibition at 1 µM on human Kv1.3 is 74%; on hKv1.5 it was 81.2%.
In the same order, the values of `O=C(c1ccc(N(Cc2ccccc2)S(=O)(=O)c2cc(Cl)cc(Cl)c2)cc1)N1CCN(c2ccccc2)CC1` [Example 29, N-Benzyl-3,5-dichloro-N-[4-(4-phenyl-piperazine-1-carbonyl)-phenyl]-benzenesulfonamide] are 70% and 75.3%.
In the same order, the values of `O=C(c1ccc(N(Cc2ccccc2)S(=O)(=O)c2cccc(Cl)c2)cc1)N1CCN(c2ccccc2)CC1` [Example 30, N-Benzyl-3-chloro-N-[4-(4-phenyl-piperazine-1-carbonyl)-phenyl]-benzenesulfonamide] are 92% and 85.6%.
In the case of `O=C(c1ccc(N(Cc2cccc(F)c2)S(=O)(=O)c2ccccc2)cc1)N1CCN(c2ccccc2)CC1` [Example 31, N-(3-Fluoro-benzyl)-N-[4-(4-phenyl-piperazine-1-carbonyl)-phenyl]-benzenesulfonamide], the inhibition at 1 µM on human Kv1.3 was 67%; at hKv1.5, 61.6%.
The matching figures for `COc1ccccc1CN(c1ccc(C(=O)N2CCN(c3ccccc3)CC2)cc1)S(=O)(=O)c1ccccc1` [Example 32, N-(2-Methoxy-benzyl)-N-[4-(4-phenyl-piperazine-1-carbonyl)-phenyl]-benzenesulfonamide]: 68% and 44.2%.
The matching figures for `COc1cccc(CN(c2ccc(C(=O)N3CCN(c4ccccc4)CC3)cc2)S(=O)(=O)c2ccccc2)c1` [Example 33, N-(3-Methoxy-benzyl)-N-[4-(4-phenyl-piperazine-1-carbonyl)-phenyl]-benzenesulfonamide]: 56% and 55.7%.
Consider `Cc1ccc(CN(c2ccc(C(=O)N3CCN(c4ccccc4)CC3)cc2)S(=O)(=O)c2ccccc2)cc1` [Example 35, N-(4-Methyl-benzyl)-N-[4-(4-phenyl-piperazine-1-carbonyl)-phenyl]-benzenesulfonamide], for which the inhibition at 1 µM stood at 56% at human Kv1.3 and 68.9% on hKv1.5.
The matching figures for `CC1(C)CCc2cc(S(=O)(=O)N(Cc3ccccc3)c3ccc(C(=O)N4CCN(c5ccccc5)CC4)cc3)ccc2O1` [Example 39, 2,2-Dimethyl-chroman-6-sulfonic acid benzyl-[4-(4-phenyl-piperazine-1-carbonyl)-phenyl]-amide]: 47% and 58.9%.
In the case of `O=C(c1ccc(N(Cc2ccccc2)S(=O)(=O)c2ccc([N+](=O)[O-])cc2)cc1)N1CCN(c2ccccc2)CC1` [Example 40, N-Benzyl-4-nitro-N-[4-(4-phenyl-piperazine-1-carbonyl)-phenyl]-benzenesulfonamide], the figures for the inhibition at 1 µM at human Kv1.3 and on hKv1.5 were 62% and 62.4%, respectively.
As to `CCc1ccc(S(=O)(=O)N(Cc2ccccc2)c2ccc(C(=O)N3CCN(c4ccccc4)CC3)cc2)cc1` [Example 42, N-Benzyl-4-ethyl-N-[4-(4-phenyl-piperazine-1-carbonyl)-phenyl]-benzenesulfonamide], the values for the inhibition at 1 µM at human Kv1.3 and on hKv1.5 were 76% and 66.4%, respectively.
The matching figures for `Cc1ccc(CN(c2ccc(C(=O)N3CCN(c4ccccc4)CC3)cc2)S(=O)(=O)c2cn(C)cn2)cc1` [Example 43, 1-Methyl-1H-imidazole-4-sulfonic acid (4-methyl-benzyl)-[4-(4-phenyl-piperazine-1-carbonyl)-phenyl]-amide]: 78% and 46.4%.
Turning to `Cn1cnc(S(=O)(=O)N(Cc2cccc(F)c2)c2ccc(C(=O)N3CCN(c4ccccc4)CC3)cc2)c1` [Example 44, 1-Methyl-1H-imidazole-4-sulfonic acid (3-fluoro-benzyl)-[4-(4-phenyl-piperazine-1-carbonyl)-phenyl]-amide], the inhibition at 1 µM at human Kv1.3 was 76%; on hKv1.5 it was 43.6%.
`Cc1nn(C)cc1S(=O)(=O)N(Cc1ccccc1)c1ccc(C(=O)N2CCN(c3ccccc3)CC2)cc1` [Example 46, 1,3-Dimethyl-1H-pyrazole-4-sulfonic acid benzyl-[4-(4-phenyl-piperazine-1-carbonyl)-phenyl]-amide]: the inhibition at 1 µM at human Kv1.3 turned out to be 66%; on hKv1.5 it was 62.9%.
The matching figures for `Cc1nc(C)c(S(=O)(=O)N(Cc2ccccc2)c2ccc(C(=O)N3CCN(c4ccccc4)CC3)cc2)s1` [Example 48, 2,4-Dimethyl-thiazole-5-sulfonic acid benzyl-[4-(4-phenyl-piperazine-1-carbonyl)-phenyl]-amide]: 79% and 49.3%.
For `Cc1cc(C(=O)N2CCN(c3ccccc3)CC2)ccc1N(Cc1ccccc1)S(=O)(=O)c1cn(C)cn1` [Example 49, 1-Methyl-1H-imidazole-4-sulfonic acid benzyl-[2-methyl-4-(4-phenyl-piperazine-1-carbonyl)-phenyl]-amide], the inhibition at 1 µM at human Kv1.3 stood at 76%; on hKv1.5 it was 50%.
In the case of `Cn1cnc(S(=O)(=O)N(Cc2ccccc2)c2ccc(C(=O)N3CCN(c4ccccc4)CC3)cc2F)c1` [Example 50, 1-Methyl-1H-imidazole-4-sulfonic acid benzyl-[2-fluoro-4-(4-phenyl-piperazine-1-carbonyl)-phenyl]-amide], the inhibition at 1 µM at human Kv1.3 was 69%; at hKv1.5 it was 56.8%.
The matching figures for `COc1cccc(CN(c2ccc(C(=O)N3CCN(c4ccccc4)CC3)cc2)S(=O)(=O)c2ccccc2)c1OC` [Example 51, N-(2,3-Dimethoxy-benzyl)-N-[4-(4-phenyl-piperazine-1-carbonyl)-phenyl]-benzenesulfonamide]: 42% and 57.5%.
With `Cc1cc(N(Cc2ccccc2)S(=O)(=O)c2ccccc2)ccc1C(=O)N1CCN(c2ccccc2)CC1` [Example 52, N-Benzyl-N-[3-methyl-4-(4-phenyl-piperazine-1-carbonyl)-phenyl]-benzenesulfonamide], the inhibition at 1 µM came to 67% at human Kv1.3 and 93.6% on hKv1.5.
